Experiments:
Influenza A virus = experiment: Antiviral activity against Influenza A virus A/WSN/1933 (H1N1) infected in MDCK cells assessed as protection against virus induced cytopathic effect after 40 hrs by Celltiter-Glo assay; assay type: functional, organism-based
[1] = Cytotoxicity against MDCK cells after 40 hrs by Celltiter-Glo assay; assay type: cell-based, Canis lupus familiaris; conditions: dog
[2] = system: Influenza A virus (A/WSN/1933(H1N1)); experiment: Binding affinity to Influenza A virus A/WSN/33 (H1N1) HA1 protein assessed as decrease in protein affinity to sialic acid receptor at 2.5 uM by surface plasmon resonance assay
[3] = system: Influenza A virus (A/WSN/1933(H1N1)); experiment: Binding affinity to Influenza A virus A/WSN/33 (H1N1) HA1 protein assessed as decrease in protein affinity to sialic acid receptor at 10 uM by surface plasmon resonance assay
[4] = Binding affinity to Influenza A virus A/WSN/33 (H1N1) HA1 protein assessed as decrease in protein affinity to sialic acid receptor by surface plasmon resonance assay (reference value: 70 nM); set-up: species or system Influenza A virus (A/WSN/1933(H1N1))
[5] = system: Influenza A virus (A/WSN/1933(H1N1)); experiment: Binding affinity to Influenza A virus A/WSN/33 (H1N1) HA1 protein assessed as decrease in protein affinity to sialic acid receptor at 20 uM by surface plasmon resonance assay
[6] = system: Influenza A virus (A/WSN/1933(H1N1)); experiment: (§1) Binding affinity to Influenza A virus A/WSN/33 (H1N1) HA1 protein by surface plasmon resonance assay
[7] = Binding affinity to Influenza A virus A/WSN/33 (H1N1) HA1 protein assessed as decrease in protein affinity to sialic acid receptor by measuring dissociation constant by surface plasmon resonance assay (reference value: 0.001473/Ms); set-up: species or system Influenza A virus (A/WSN/1933(H1N1))
[8] = system: Influenza A virus (A/WSN/1933(H1N1)); experiment: Binding affinity to Influenza A virus A/WSN/33 (H1N1) HA1 protein assessed as decrease in protein affinity to sialic acid receptor at 5 uM by surface plasmon resonance assay
[9] = system: Influenza A virus (A/WSN/1933(H1N1)); experiment: Binding affinity to Influenza A virus A/WSN/33 (H1N1) HA1 protein assessed as decrease in protein affinity to sialic acid receptor at 0.625 uM by surface plasmon resonance assay
[10] = system: Influenza A virus (A/WSN/1933(H1N1)); experiment: Binding affinity to Influenza A virus A/WSN/33 (H1N1) HA1 protein assessed as decrease in protein affinity to sialic acid receptor at 1.25 uM by surface plasmon resonance assay
[11] = Inhibition of Influenza A virus A/WSN/33 (H1N1) HA1 protein by surface plasmon resonance assay; set-up: species or system Influenza A virus (A/WSN/1933(H1N1))
[12] = system: Influenza A virus (A/WSN/1933(H1N1)); experiment: Binding affinity to Influenza A virus A/WSN/33 (H1N1) HA1 protein assessed as decrease in protein affinity to sialic acid receptor by measuring association constant by surface plasmon resonance assay (reference value: 20810/s)
[13] = system: Influenza A virus (A/WSN/1933(H1N1)); experiment: Binding affinity to Influenza A virus A/WSN/33 (H1N1) HA1 protein assessed as decrease in protein affinity to sialic acid receptor at 20 uM by surface plasmon resonance assay relative to control
[14] = as §1; set-up: species or system Influenza A virus (A/WSN/1933(H1N1))
Influenza B virus = experiment: Antiviral activity against influenza B virus B/SZ/155 infected in dog MDCK cells assessed as inhibition of virus induced cytopathic effect after 40 hrs by Cell-Titer-Glo assay; assay type: functional, organism-based; conditions: B/SZ/155, MDCK

In the case of `CCCc1cc(O)cc(O)c1Oc1c(Cl)c(O)c(Cl)c2c1C(=O)O[C@@H]2CC`, the IC50 (Influenza A virus) is reported as over 100 µM and the CC50 at 40 h [1] is reported as over 100 µM.
In the case of `CCCc1cc(O)cc(OC)c1Oc1c(Cl)c(O)c(Cl)c2c1C(=O)O[C@@H]2CC`, the Activity [2] is reported as 13 RU, the IC50 (Influenza A virus) is reported as 74.9 µM and the Activity [3] is reported as 55.1 RU. It also gave a Kd [4] of 0.224 µM, an Activity [5] of 114 RU and a Ka [6] of 0.46 ×10⁴ /Ms. The CC50 at 40 h [1] was over 100 µM, the Kd [7] was 0.0007964 M⁻¹ s⁻¹ and the Activity [8] was 27.1 RU. The Activity [9] was 3.4 RU, the Activity [10] was 7 RU and the IC50 [11] was 74.9 µM. The Ka [12] was 3560 s⁻¹.
Work on `CCCc1c(Cl)c(OC)cc(OC)c1Oc1c(Cl)c(O)c(Cl)c2c1C(=O)O[C@@H]2CC` yielded an IC50 (Influenza A virus) of 16.2 µM and a CC50 at 40 h [1] of over 50 µM.
With `COc1cc(/C=C/C(=O)CC(=O)/C=C/c2ccc(O)c(OC)c2)ccc1O` [CURCUMIN] the Activity [2] was 6.8 RU, the Activity [3] was 36.4 RU and the Kd [4] was 0.507 µM. For the same compound, the Activity [5] was 78.8 RU, the Kd [7] was 0.001351 M⁻¹ s⁻¹ and the Activity [8] was 16.1 RU. For the same compound, the Activity [9] was 0.8 RU, the Activity [10] was 2.7 RU and the Ka [12] was 2660 s⁻¹. It also gave a fold change (FC) [13] of 8.
In the case of `CCCc1cc(O)c(Cl)c(OC)c1Oc1c(Cl)c(O)c(Cl)c2c1C(=O)O[C@@H]2CC`, the IC50 (Influenza A virus) is reported as 11.4 µM, the Ka [6] is reported as 0.77 ×10⁴ /Ms and the Kd [14] is reported as 55 µM. The CC50 at 40 h [1] was over 100 µM and the IC50 [11] was 11.4 µM.
For `CCCc1c(Cl)c(O)c(Cl)c(OC)c1Oc1c(Cl)c(O)c(Cl)c2c1C(=O)O[C@@H]2CC`, the IC50 (Influenza A virus) was 22.6 µM and the CC50 at 40 h [1] was over 100 µM.
`CCOC(=O)C1=C[C@@H](OC(CC)CC)[C@H](NC(C)=O)[C@@H](N)C1` [OSELTAMIVIR] gave an IC50 (Influenza A virus) of 10 µM, a CC50 at 40 h [1] of over 100 µM and an EC50 (Influenza B virus) of over 83.2 µM.
With `NC(=O)c1ncn([C@@H]2O[C@H](CO)[C@@H](O)[C@H]2O)n1` [RIBAVIRIN] the CC50 at 40 h [1] was over 200 µM and the EC50 (Influenza B virus) was 4.28 µM.
Work on `CCOC(=O)c1c(CSc2ccccc2)n(C)c2cc(Br)c(O)c(CN(C)C)c12` [UMIFENOVIR] yielded an Activity [2] of 7.5 RU, an Activity [3] of 48.7 RU and a Kd [4] of 0.081 µM. The Activity [5] was 102 RU, the Kd [7] was 0.0009582 M⁻¹ s⁻¹ and the Activity [8] was 20.7 RU. The Activity [9] was -1.8 RU, the Activity [10] was 1.2 RU and the Ka [12] was 11800 s⁻¹.
`CCCc1c(Cl)c(OC)c(Cl)c(OC)c1Oc1c(Cl)c(O)c(Cl)c2c1C(=O)O[C@@H]2CC` showed an IC50 (Influenza A virus) of over 50 µM and a CC50 at 40 h [1] of over 50 µM.
